Experimental data published in PubChem BioAssay (NCI).
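Briefly, cells in 96-well plates were exposed to five compound concentrations for 48 h, and endpoints were estimated by linear interpolation. TGI marks complete inhibition of growth.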

Experiments:
Experiment in all cases: NCI anticancer screen, dose series, 48 h
[1] = test system: K-562 leukemia
[2] = test system: HT29 colon
[3] = test system: COLO 205 colon
[4] = test system: SK-MEL-5 melanoma
[5] = test system: NCI-H460 lung
[6] = test system: CAKI-1 renal
[7] = test system: HOP-62 NSCLC
[8] = test system: HCT-15 colon
[9] = test system: A498 renal
[10] = test system: UO-31 renal
[11] = test system: LOX IMVI melanoma
[12] = test system: IGROV1 ovarian
[13] = test system: SF-295 CNS
[14] = test system: SW-620 colon
[15] = test system: SR leukemia
[16] = test system: UACC-257 melanoma
[17] = test system: MOLT-4 leukemia
[18] = test system: SK-MEL-2 melanoma
[19] = test system: UACC-62 melanoma
[20] = test system: RPMI-8226 leukemia
[21] = test system: OVCAR-4 ovarian
[22] = test system: M14 melanoma
[23] = test system: HCT-116 colon
[24] = test system: HOP-92 NSCLC
[25] = test system: NCI-H522 lung
[26] = test system: NCI/ADR-RES ovarian
[27] = test system: EKVX NSCLC
[28] = test system: MCF7 breast
[29] = test system: NCI-H226 lung
[30] = test system: CCRF-CEM leukemia
[31] = test system: SF-539 CNS
[32] = test system: MDA-MB-435
[33] = test system: OVCAR-5 ovarian
[34] = test system: ACHN renal
[35] = test system: MDA-MB-231 breast
[36] = test system: A549 NSCLC
[37] = test system: MDA-N
[38] = test system: TK-10 renal
[39] = test system: OVCAR-3 ovarian
[40] = test system: RXF 393 renal
[41] = test system: NCI-H23 lung
[42] = test system: HCC-2998 colon
[43] = test system: OVCAR-8 ovarian
[44] = test system: T-47D breast
[45] = test system: BT-549 breast
[46] = test system: SK-OV-3 ovarian
[47] = test system: PC-3 prostate
[48] = test system: SN12C renal
[49] = test system: 786-0 renal
[50] = test system: KM12 colon
[51] = test system: U251 CNS
[52] = test system: SNB-19 CNS
[53] = test system: MALME-3M melanoma
[54] = test system: SNB-75 CNS
[55] = test system: SF-268 CNS
[56] = test system: DU-145 prostate
[57] = test system: SK-MEL-28 melanoma
[58] = test system: HL-60(TB) leukemia
[59] = test system: HS 578T breast

In the case of CCOC(=O)Nn1cnnc1C, the TGI [1] is reported as over 100 µM, the TGI [2] is reported as over 100 µM and the TGI [3] is reported as over 100 µM. For the same compound, the TGI [4] was over 100 µM, the TGI [5] was over 100 µM and the TGI [6] was over 100 µM. The TGI [7] was over 100 µM, the TGI [8] was over 100 µM and the TGI [9] was over 100 µM. The TGI [10] was over 100 µM, the TGI [11] was over 100 µM and the TGI [12] was over 100 µM. For the same compound, the TGI [13] was over 100 µM, the TGI [14] was over 100 µM and the TGI [15] was over 100 µM. The TGI [16] was over 100 µM, the TGI [17] was over 100 µM and the TGI [18] was over 100 µM. The TGI [19] was over 100 µM, the TGI [20] was over 100 µM and the TGI [21] was over 100 µM. It also gave a TGI [22] of over 100 µM, a TGI [23] of over 100 µM and a TGI [24] of over 100 µM. The TGI [25] was over 100 µM, the TGI [26] was over 100 µM and the TGI [27] was over 100 µM. The TGI [28] was over 100 µM, the TGI [29] was over 100 µM and the TGI [30] was over 100 µM. The TGI [31] was over 100 µM, the TGI [32] was over 100 µM and the TGI [33] was over 100 µM. It also gave a TGI [34] of over 100 µM, a TGI [35] of over 100 µM and a TGI [36] of over 100 µM. For the same compound, the TGI [37] was over 100 µM, the TGI [38] was over 100 µM and the TGI [39] was over 100 µM. It also gave a TGI [40] of over 100 µM, a TGI [41] of over 100 µM and a TGI [42] of over 100 µM. It also gave a TGI [43] of over 100 µM, a TGI [44] of over 100 µM and a TGI [45] of over 100 µM. It also gave a TGI [46] of over 100 µM, a TGI [47] of over 100 µM and a TGI [48] of over 100 µM. It also gave a TGI [49] of over 100 µM, a TGI [50] of over 100 µM and a TGI [51] of over 100 µM. For the same compound, the TGI [52] was over 100 µM and the TGI [53] was over 100 µM.

With Cc1nc2nn[nH]n2c(=O)c1CCO the TGI [1] was over 100 µM, the TGI [2] was over 100 µM and the TGI [3] was over 100 µM. The TGI [4] was over 100 µM, the TGI [5] was over 100 µM and the TGI [6] was over 100 µM. The TGI [7] was over 100 µM, the TGI [8] was over 100 µM and the TGI [9] was over 100 µM. It also gave a TGI [10] of over 100 µM, a TGI [11] of over 100 µM and a TGI [12] of over 100 µM. For the same compound, the TGI [13] was over 100 µM, the TGI [14] was over 100 µM and the TGI [15] was over 100 µM. For the same compound, the TGI [16] was over 100 µM, the TGI [17] was over 100 µM and the TGI [18] was over 100 µM. It also gave a TGI [19] of over 100 µM, a TGI [20] of over 100 µM and a TGI [21] of over 100 µM. For the same compound, the TGI [54] was 85.7 µM, the TGI [55] was over 100 µM and the TGI [22] was over 100 µM. For the same compound, the TGI [23] was over 100 µM, the TGI [24] was over 100 µM and the TGI [25] was over 100 µM. The TGI [26] was over 100 µM, the TGI [27] was over 100 µM and the TGI [28] was over 100 µM. It also gave a TGI [29] of over 100 µM, a TGI [30] of over 100 µM and a TGI [56] of over 100 µM. The TGI [31] was over 100 µM, the TGI [32] was over 100 µM and the TGI [33] was over 100 µM. The TGI [34] was over 100 µM, the TGI [35] was over 100 µM and the TGI [36] was over 100 µM. For the same compound, the TGI [57] was over 100 µM, the TGI [37] was over 100 µM and the TGI [38] was over 100 µM. For the same compound, the TGI [39] was over 100 µM, the TGI [40] was over 100 µM and the TGI [41] was over 100 µM. For the same compound, the TGI [42] was over 100 µM, the TGI [43] was over 100 µM and the TGI [44] was over 100 µM. The TGI [46] was over 100 µM, the TGI [47] was over 100 µM and the TGI [48] was over 100 µM. The TGI [58] was over 100 µM, the TGI [59] was over 100 µM and the TGI [49] was over 100 µM. The TGI [50] was over 100 µM, the TGI [51] was over 100 µM and the TGI [52] was over 100 µM. The TGI [53] was over 100 µM.
